# Laboratory results: article PMC9321894, “Design and Anticancer Properties of New Water-Soluble Ruthenium–Cyclopentadienyl Complexes” (Pharmaceuticals, 2022)
# Read-outs that look alike come from different tables or passages of the source. Marks after values point to notes of the source that are not given here.
# Assays:
# [1] = system: HT29 colon cancer cells; design: method as in PMID 21450266, PMID 20200702, PMID 20422091; conditions: HT29, 72 h; cited from earlier work
# [2] = system: MDAMB231 triple-negative breast cancer cells; design: method as in PMID 21450266, PMID 20200702, PMID 20422091; conditions: MDAMB231, 72 h; cited from earlier work
# [3] = system: A2780 ovarian cancer cells; design: method as in PMID 21450266, PMID 20200702, PMID 20422091; conditions: A2780, 72 h; cited from earlier work
# [4] = Solubility in water; assay type: physicochemical; conditions: in presence of air, 25 °C
# [5] = n-Octanol/water partition coefficient, shake-flask method; assay type: physicochemical; conditions: room temperature
# Description: The lipophilicity of the complexes was measured by the shake-flask method. Distilled water and n-octanol were mixed vigorously for 24 h at 25 °C, to promote solvent saturation in both phases, before the experiments. […] Aliquots of stock solutions were equilibrated with octanol for 4 h in a mechanical shaker. The phase ratio was 2 mL/2 mL (water/n-octanol). The aqueous and octanol layers were carefully separated (by centrifugation at 5000 rpm for 10 min), and UV–vis absorption spectra of the compounds were registered in both phases. The concentration for each sample was determined using the calibration curve. Triplicate experiments have been performed for each complex and the averages were calculated.
# [6] = Stability in water in presence of air (UV-vis, 1H and 31P NMR); assay type: physicochemical; conditions: for Stability in water, Time / Stability in water, Time (Days): in presence of air, 25 °C, time without hydrolysis
# Description: The stability of all the complexes in water was evaluated by ^31P NMR and UV–visible spectroscopies. Generally, a 5 mm NMR tube was charged in the air with the 10 mg of each complex and D2O (0.8 mL). ^1H NMR and ^31P NMR were monitored for four days to evaluate if there was any decomposition product. Decomposition/instability of the compound can be assessed by the disappearance of the NMR signals and/or by the appearance of new signals that could not be assigned to the known complex, beyond the appearance of free mTPPMS phosphine signals. Any eventual changes in the charge transfer bands between ruthenium and ligands were followed by UV–visible in the 300–900 nm range.
# [7] = system: MDAMB231 triple-negative breast cancer cells; assay: MTT cytotoxicity assay, MDAMB231; assay type: cell-based, human; conditions: MDAMB231, 72 h; for IC50: mean ± SD n = 3
# Description: (§1) The cytotoxic activity of all complexes was screened against A2780 (ovarian, Sigma-Aldrich, Lisboa, Portugal), MDAMB231 (breast, triple negative, ATCC), and HT29 (colon, ATCC) human cancer cells. Cells were grown in RPMI 1640 (A2780) or DMEM containing GlutaMax-I (MDAMB231), or McCoy’s (HT29) supplemented with 10% FBS and 1% penicillin/streptomycin (Invitrogen, Lisboa, Portugal). All cell lines were kept in a CO2 incubator (Heraeus, Hanau, Germany) with 5% CO2 at 37 °C in a humidified atmosphere. Cell viability was measured using the colorimetric MTT (3-(4,5-dimethylthiazol-2-yl)-2,5-diphenyltetrazolium bromide) assay. For the assays, cells were seeded in 200 μL of complete medium in 96-well plates and incubated at 37 °C for 24 h prior to complex treatment to allow cell adherence. The stock solutions in water (20 mM) of the complexes were freshly prepared and used for sequential dilutions in medium within the concentration range of 10^−10–10^−4 M. Cisplatin was also included in this study as a positive control. After careful removal of the medium, […] of a serial dilution of compounds in fresh medium was added to the cells, and incubation was carried out for 72 h at 37 °C. At the end of the treatment, the medium was discarded, and the cells were incubated with […] of an MTT solution in PBS (0.5 mg mL^−1). After 3 h incubation, medium was removed, and DMSO was added to solubilize the purple formazan crystals formed. The absorbance at 570 nm was measured using a plate spectrophotometer (Power Wave Xs, Bio-Tek, Winooski, VT, USA). Each experiment was repeated at least three times and each concentration tested in at least six replicates. The IC50 values were calculated from dose–response curves analyzed with the GraphPad Prism software (version 5.0).
# [8] = system: A2780 ovarian cancer cells; assay: MTT cytotoxicity assay, A2780; assay type: cell-based, human; conditions: A2780, 72 h, mean ± SD n = 3
# Description: as §1
# [9] = system: HT29 colon cancer cells; assay: MTT cytotoxicity assay, HT29; assay type: cell-based, human; conditions: HT29, 72 h; for IC50: mean ± SD n = 3
# Description: as §1
compound,measurement,setting,value
"N.N.[Cl][Pt][Cl] [CisPt, Cisplatin]",IC50,[1],7 ± 2 µM
same,IC50,[2],39 ± 5 µM
same,IC50,[3],1.9 ± 0.1 µM
"O=S(=O)([O-])C(F)(F)F.O=S(=O)([O-])c1cccc(P(c2ccccc2)c2ccccc2)c1.O=S(=O)([O-])c1cccc(P(c2ccccc2)c2ccccc2)c1.[Na+].[Na+].[Ru+2].c1c[nH]cn1.c1cc[cH-]c1 [Compound 1, [RuCp(mTPPMSNa)2(ImH)][CF3SO3]]",S(H2O),[4],21.4 mg/mL
"NCCCn1ccnc1.O=S(=O)([O-])C(F)(F)F.O=S(=O)([O-])c1cccc(P(c2ccccc2)c2ccccc2)c1.O=S(=O)([O-])c1cccc(P(c2ccccc2)c2ccccc2)c1.[Na+].[Na+].[Ru+2].c1cc[cH-]c1 [Compound 4, [RuCp(mTPPMSNa)2(3-ApIm)][CF3SO3]]",Log Po/w,[5],4.43 ± 0.03
same,Time stable in water,[6]; aqueous solution,24 h
same,"Stability in water, Time",[6],1 days
same,S(H2O),[4],48.6 mg/mL
same,S(H2O),[4]; value in brackets,0.049 M
"COc1ccc(-n2ccnc2)cc1.O=S(=O)([O-])C(F)(F)F.O=S(=O)([O-])c1cccc(P(c2ccccc2)c2ccccc2)c1.O=S(=O)([O-])c1cccc(P(c2ccccc2)c2ccccc2)c1.[Na+].[Na+].[Ru+2].c1cc[cH-]c1 [Compound 5, [RuCp(mTPPMSNa)2(4-MpIm)][CF3SO3]]","Stability in water, Time",[6],0.12 days
same,S(H2O),[4],28.8 mg/mL
same,S(H2O),[4]; value in brackets,0.029 M
[RuCp(mTPPMSNa)2(1-BI)][CF3SO3] [Compound 2],"Stability in water, Time",[6],0.25 days
same,S(H2O),[4],38.6 mg/mL
same,S(H2O),[4]; value in brackets,0.039 M
[RuCp(mTPPMSNa)2(1-BuIm)][CF3SO3] [Compound 3],"Stability in water, Time",[6],0.12 days
same,S(H2O),[4],42.8 mg/mL
same,S(H2O),[4]; value in brackets,0.043 M
[RuCp(mTPPMSNa)(dpk)][CF3SO3] [Compound 7],Cytotoxicity (in words),[7],not cytotoxic
same,IC50,[7],> 100 µM
same,Log Po/w,[5],5.95 ± 0.07
same,IC50,[8],0.45 ± 0.3 µM
same,Changes in the UV–vis spectra in aqueous solution,[6]; over 4 days at 37 °C,insignificant
same,"Stability in water, Time (Days)",[6],>4 ^[b] Days
same,Cytotoxicity (in words),[9],not cytotoxic
same,IC50,[9],> 100 µM
same,S(H2O),[4],19.3 mg/mL
same,S(H2O),[4]; value in brackets,0.019 M
[RuCp(mTPPMSNa)(pbt)][CF3SO3] [Compound 8],IC50,[7],25.4 ± 5 µM
same,IC50,[8],0.2 ± 0.08 µM
same,Stability in water by NMR (in words),"[6]; D2O, 4 days, UV–vis bands decrease due to precipitation",remained intact without the formation of new species
same,"Stability in water, Time (Days)",[6],">4 ^[b,c] Days"
same,IC50,[9],11.3 ± 2.4 µM
same,S(H2O),[4],20.0 mg/mL
same,S(H2O),[4]; value in brackets,0.02 M
